One series deals with integrinα6. Put plainly: QRT-PCR confirmation of gene regulation in HaCaT cells. Type of series: cell-based, human. Conditions: β-carotene, unirradiated cells. How it is done:
(§1) FIGS. 9A-9C show β-carotene-induced inhibition of integrinα6 transcription in irradiated and unirradiated HaCaT cells (FIG. 9A) and enhancement of UVA-induced GADD34 (FIG. 9B) and GADD153 transcription (FIG. 9C). Cells were supplemented with β-carotene for 2 days prior to UVA irradiation (270 kJ/m^2) either in normal PBS or D2O-PBS. Gene expression 5 hours after irradiation was determined by quantitative real time polymerase chain reaction. (“QRT-PCR”). Values are geometric mean±standard error of three experiments.
(§2) Key gene regulation was confirmed in three independent cell irradiation experiments using TaqMan® QRT-PCR as described. In these experiments, cells were pretreated with 0.5, 1.5, or 3 μM β-carotene, to analyze for dose-dependent β-carotene effects. In addition, cells were irradiated either in D2O-containing PBS or in H2O-containing PBS, to analyze for the ^1O2 inducibility of genes.

In the next series the test system is GADD34. Described as above. Type of series: cell-based, human. Conditions: 5 hours after UVA. How it is done: as §1, §2
For a further series, the system named is GADD153. Described as above. The note with it: 5 hours after UVA. The class given is cell-based, human. The protocol:
as §1, §2

The nature of series [1]: β-Carotene concentration in culture medium during incubation. The class given is physicochemical. The note with it: 24 hours of incubation, irrespective of the presence of cells. The protocol:
β-carotene-containing medium was prepared as follows. Fresh all-E-β-carotene (DSM Nutritional Products, Kaiseraugst, Switzerland) stock solution in THF (containing 0.025% BHT; Fluka Chemie A G, Switzerland) was diluted 1:2 with ethanol and added to cell culture medium to a final concentration of 1.5 μM β-carotene. The solvent concentration in the medium was 0.5% for all treatments. β-carotene-containing medium was prepared fresh for the daily medium changes.

For another series, the system named is MMP-2. Put plainly: QRT-PCR gene expression in HaCaT cells with or without UVA. The class given is cell-based, human. The protocol:
HaCaT cells were obtained from Prof. Fusenig, German Cancer Research Centre, Heidelberg. […] The accuracy of cell counting was approximately 99%.
On day 3 of the experiment, cells were washed six times with Ca/Mg-free PBS containing 2% BSA, and then irradiated with light with a Hönle sun lamp Sol 500 (Dr. Hönle, Plannegg, Germany) at a dose of 270 kJ/m^2 in Ca/Mg-free PBS (2 hour exposure time at […]). The experimental schedule was chosen because the cells had optimal UVA sensitivity after 48 hours in culture. […] Confluent cultures were much less sensitive to irradiation.
After irradiation, the cells were supplied with fresh β-carotene-containing serum-free medium and kept in the incubator at 37° C., 5% CO2 until harvest of the samples. In experiments in which the half-life of ^1O2 was prolonged by D2O to enhance its effect, PBS was prepared in D2O, instead of in H2O, as it was done for the standard conditions described above. Cells were washed twice in D2O-PBS prior to irradiation in D2O-PBS. After irradiation, cells were maintained with fresh β-carotene-containing serum-free medium. Sham controls were treated in an identical manner, by placing them under the solar simulator but shielded from light.
Total RNA was isolated by using Trizol™ (Invitrogen, Basel, Switzerland) according to the instructions of the manufacturer. Random-primed cDNA was synthesized using the Superscript pre-amplification system for first strand cDNA synthesis (Invitrogen).
cDNA corresponding to 10 ng total RNA was used as template to quantify the relative RNA expression of the genes of interest by TaqMan® real time PCR.
The PCR analyses were carried out in triplicate and in a multiplex setup, using 18S rRNA as a calibrator gene. The rRNA primers were used at a final concentration of 50 nM, the probe at 100 nM. For quantification of the genes of interest, the primer concentrations were optimized for sensitivity of template detection. […] PCR reactions were carried out for 40 cycles of 95° C. for 15 seconds and 60° C. for 1 minute in an ABI7700 (Applied Biosystems, Rotkreuz, Switzerland). Regulation of gene expression was calculated as described in user bulletin #2 provided by the manufacturer. A threshold cycle (“CT”) is the first PCR cycle in which an amplification signal is detected. Expression levels are given as δCT values. The δCT value describes the level of gene expression as the average PCR cycle, in which the gene of interest was detected first (CT value), subtracted by the CT value of the calibrator gene 18S rRNA (CTgene of interest−CTcalibrating gene), 18S rRNA served as a measure for the amount of template in the reaction. Routinely, 18S rRNA was detected between PCR cycle 12 and 13 (SE=standard error) A low δCT corresponds to a high mRNA level.

Turning to `CC1=C(/C=C/C(C)=C/C=C/C(C)=C/C=C/C=C(C)/C=C/C=C(C)/C=C/C2=C(C)CCCC2(C)C)C(C)(C)CCC1` [β-carotene, All-E-β-carotene], the integrinα6 transcription result with integrinα6 is “downregulation”. In addition, the “UVA-induced GADD34 transcription” value with GADD34 is listed as “enhancement”. Also, the “UVA-induced GADD153 transcription” value with GADD153 is on record as “enhancement”. In addition, the “β-carotene concentration in medium remaining” value in series [1] is “approximately 50%”. Besides, the MMP-2 expression entry is “no significant effect” in the series with MMP-2 (UVA/D2O experiments) and “did not influence their expression significantly” in the series with MMP-2 (β-carotene 1.5 μM, with or without UVA).
